ChEMBL document CHEMBL5532682, “Recent advances of tryptanthrin and its derivatives as potential anticancer agents” (RSC Med Chem, 2024)
Each block holds one molecule with its values, some of them ahead of it.

Experiments:
MCF7 = assay: Antiproliferative activity against human MCF7 cells assessed as inhibition of cell growth; format: functional, cell-based
A549 [1] = assay: Antiproliferative activity against human A549 cells assessed as inhibition of cell growth; format: functional, cell-based
HeLa [2] = assay: Antiproliferative activity against human HeLa cells assessed as inhibition of cell growth; format: functional, cell-based
[3] = Cytotoxicity against human HEK293 cells assessed as inhibition of cell growth; format: toxicity, cell-based
NCI/ADR-RES = assay: Growth inhibition of human MCF7ADR cells assessed as reduction in cell viability; format: functional
U-251 = assay: Growth inhibition of human U-251 cells assessed as reduction in cell viability; format: functional
SW-620 = assay: Growth inhibition of human SW620 cells assessed as reduction in cell viability; format: functional
NCI-H522 = assay: Growth inhibition of human NCI-H522 cells assessed as reduction in cell viability; format: functional
M14 = assay: Growth inhibition of human M14 cells assessed as reduction in cell viability; format: functional
SK-OV-3 [4] = assay: Growth inhibition of human SK-OV-3 cells assessed as reduction in cell viability; format: functional
DU-145 = assay: Growth inhibition of human DU-145 cells assessed as reduction in cell viability; format: functional
A498 = assay: Growth inhibition of human A498 cells assessed as reduction in cell viability; format: functional
A549 [5] = assay: Antiproliferative activity against human A549 cells incubated by 48 hrs by MTT assay; format: functional, cell-based; details: A549, 48 h
K562 [6] = assay: Antiproliferative activity against human K562 cells incubated by 48 hrs by MTT assay; format: functional, cell-based; details: K562, 48 h
HepG2 [7] = assay: Antiproliferative activity against human HepG2 cells incubated by 48 hrs by MTT assay; format: functional, cell-based; details: HepG2, 48 h
PC-3 = assay: Antiproliferative activity against human PC-3 cells incubated by 48 hrs by MTT assay; format: functional, cell-based; details: PC-3, 48 h
HT-29 = assay: Antiproliferative activity against human HT-29 cells; format: functional, cell-based
PANC-1 = assay: Antiproliferative activity against human PANC-1 cells; format: functional, cell-based
MDA-MB-231 = assay: Antiproliferative activity against human MDA-MB-231 cells; format: functional, cell-based
[8] = Cytotoxicity activity against human HDF cells; format: toxicity, cell-based; details: HDF cells (NHDF)
A549 [9] = assay: Antiproliferative activity against human A549 cells assessed as inhibition of cell viability; format: functional, cell-based
A549/CDDP = assay: Antiproliferative activity against human A549/DDP cells assessed as inhibition of cell viability; format: functional, cell-based
[10] = Antiproliferative activity against human HL7702 cells assessed as inhibition of cell viability; format: toxicity, cell-based; details: HL7702 (L02) cells
Hep 3B2 [11] = assay: Antiproliferative activity against human Hep3B cells measured after 48 hrs by MTT assay; format: functional, cell-based
K562 [12] = assay: Antiproliferative activity against human K562 cells incubated for 48 hrs; format: functional, cell-based; details: K562, 48 h
HeLa [13] = assay: Antiproliferative activity against human HeLa cells incubated for 48 hrs; format: functional, cell-based
CT26 = assay: Antiproliferative activity against mouse CT26 cells incubated for 48 hrs; format: functional, cell-based; details: CT26, 48 h
HL-60 = assay: Anticancer activity against human HL-60 cells measured after 48 hrs; format: functional, cell-based; details: HL-60, 48 h
MOLT-4 = assay: Anticancer activity against human MOLT-4 cells measured after 48 hrs; format: functional, cell-based; details: MOLT-4, 48 h
K562 [14] = assay: Anticancer activity against human K562 cells measured after 48 hrs; format: functional, cell-based; details: K562, 48 h
T-24 [15] = assay: Antiproliferative activity against human T24 cells measured after 48 hrs by MTT assay; format: functional, cell-based; details: T-24, 48 h
Bel-7402 = assay: Antiproliferative activity against human Bel-7402 cells measured after 48 hrs by MTT assay; format: functional, cell-based; details: Bel-7402, 48 h
MGC-803 = assay: Antiproliferative activity against human MGC-803 cells measured after 48 hrs by MTT assay; format: functional, cell-based; details: MGC-803, 48 h
HepG2 [16] = assay: Antiproliferative activity against human HepG2 cells measured after 48 hrs by MTT assay; format: functional, cell-based; details: HepG2, 48 h
[17] = Antiproliferative activity against human HL7702 cells measured after 48 hrs by MTT assay; format: toxicity, cell-based; details: HL7702 (L02) cells
T-24 [18] = assay: Antiproliferative activity against human T24 cells assessed as inhibition of cell growth; format: functional, cell-based
A549 [19] = assay: Antiproliferative activity against human A549 cells assessed as cell growth inhibition; format: functional, cell-based
SK-OV-3 [20] = assay: Antiproliferative activity against human SK-OV-3 cells assessed as inhibition of cell growth; format: functional, cell-based
HeLa [21] = assay: Antiproliferative activity against human HeLa cells assessed as cell growth inhibition; format: functional, cell-based
HepG2 [22] = assay: Antiproliferative activity against human HepG2 cells assessed as inhibition of cell growth; format: functional, cell-based
[23] = Antiproliferative activity against human HL7702 cells assessed as inhibition of cell growth; format: toxicity, cell-based; details: HL7702 (L02) cells
Hep 3B2 [24] = assay: Anticancer activity against human Hep3B cells measured after 48 hrs; format: functional, cell-based

Structure (SMILES): O=c1c2ccccc2nc2n1-c1ccccc1[C@@]2(O)OCCOc1ccccc1
GI50 (NCI/ADR-RES): > 100 µM | GI50 (U-251): > 100 µM | GI50 (SW-620): > 100 µM | GI50 (NCI-H522): > 100 µM | GI50 (M14): > 100 µM | GI50 (SK-OV-3 [4]): > 100 µM | GI50 (DU-145): > 100 µM | GI50 (A498): > 100 µM

Structure (SMILES): O=C1c2ccccc2-n2c1nc1cccc(F)c1c2=O
IC50 (A549 [5]): 5.45 µM | IC50 (K562 [6]): 6.86 µM | IC50 (HepG2 [7]): 6.26 µM | IC50 (PC-3): 12.4 µM

Structure (SMILES): Cc1nn(Br)c2c1[C@@]1(C(C#N)=CO2)c2cc(-c3cccc(Cl)c3)ccc2-n2c1nc1ccccc1c2=O
IC50 (HT-29): 63.8 µM | IC50 (PANC-1): 96.4 µM | IC50 (MDA-MB-231): 81.3 µM | IC50 [8]: > 100 µM

Structure (SMILES): O=C(CCCCN(Cc1ccccn1)Cc1ccccn1)Nc1ccc2c(c1)C(=O)c1nc3ccccc3c(=O)n1-2
IC50 (A549 [9]): 63.7 µM | IC50 (A549/CDDP): 52.4 µM | IC50 [10]: > 100 µM

Structure (SMILES): O=C1c2cc(C(F)(F)F)ccc2-n2c1nc1ccccc1c2=O
IC50 (Hep 3B2 [11]): 3.4 µM

Structure (SMILES): O=C1c2cc(F)c(F)cc2-n2c1nc1ccccc1c2=O
IC50 (A549 [5]): 2.15 µM | IC50 (K562 [6]): 3.31 µM | IC50 (HepG2 [7]): 9.84 µM | IC50 (PC-3): 10.4 µM

Structure (SMILES): CCCC[C@]1(O)c2ccccc2-n2c1nc1ccccc1c2=O
GI50 (NCI/ADR-RES): > 100 µM | GI50 (U-251): > 100 µM | GI50 (SW-620): > 100 µM | GI50 (NCI-H522): > 100 µM | GI50 (M14): > 100 µM | GI50 (SK-OV-3 [4]): > 100 µM | GI50 (DU-145): > 100 µM | GI50 (A498): > 100 µM

Structure (SMILES): O=C1c2cccc(F)c2-n2c1nc1ccccc1c2=O
IC50 (A549 [5]): 6.45 µM | IC50 (K562 [6]): 3.69 µM | IC50 (HepG2 [7]): 5.89 µM | IC50 (PC-3): 7.05 µM

Structure (SMILES): CN(C)c1ccc2c(c1)C(=O)c1nc3ccccc3c(=O)n1-2
IC50 (Hep 3B2 [11]): 9 µM

Structure (SMILES): COc1cccc2c1C(=O)c1c(O)c3c(c(O)c1C2=O)C[C@@](O)(C(=O)CO)C[C@@H]3O[C@H]1C[C@H](N)[C@H](O)[C@H](C)O1 [DOXORUBICIN]
IC50 (Hep 3B2 [24]): 0.26 µM

Now from value to molecule, other results behind:

IC50 (MCF7): 10.2 µM | IC50 (A549 [1]): 6.67 µM | IC50 (HeLa [2]): 9.54 µM
Structure (SMILES): O=C1C2C=CC=CC2=NC2/C(=N\Nc3nc(-c4ccc(F)cc4)cs3)c3ccccc3N12 (centres undefined)
IC50 [3]: 86.1 µM

IC50 (MCF7): 6.05 µM | IC50 (A549 [1]): 8.18 µM | IC50 (HeLa [2]): 7.08 µM
Structure (SMILES): N#Cc1ccc(-c2csc(N/N=C3/c4ccccc4N4C(=O)C5C=CC=CC5=NC34)n2)cc1 (centres undefined)
IC50 [3]: 92.3 µM

IC50 (K562 [12]): 10.2 µM | IC50 (HeLa [13]): > 50 µM | IC50 (CT26): > 50 µM
Structure (SMILES): Cc1ccc2c(c1)[C@@]1(N[C@H](C(=O)NCC(=O)O)[C@]3(c4ccccc4)[C@@H](c4ccccc4)[C@]13c1ccccc1)c1nc3ccccc3c(=O)n1-2

IC50 (MCF7): 18.2 µM | IC50 (A549 [1]): 11.1 µM | IC50 (HeLa [2]): 21.7 µM
Structure (SMILES): O=C1C2C=CC=CC2=NC2/C(=N\Nc3nc(-c4ccc(Cl)cc4)cs3)c3ccccc3N12 (centres undefined)
IC50 [3]: 80.9 µM

IC50 (HT-29): 98.8 µM | IC50 (PANC-1): > 100 µM | IC50 (MDA-MB-231): 52.6 µM
Structure (SMILES): Cc1n[nH]c2c1[C@@]1(C(C#N)=CO2)c2cc(-c3cccc(Cl)c3)ccc2-n2c1nc1ccccc1c2=O
IC50 [8]: > 100 µM

IC50 (K562 [12]): > 50 µM | IC50 (HeLa [13]): 33 µM | IC50 (CT26): 10 µM
Structure (SMILES): O=C(O)CNC(=O)[C@H]1N[C@@]2(c3ccccc3-n3c2nc2ccccc2c3=O)[C@@]2(c3ccccc3)[C@H](c3ccccc3)[C@@]12c1ccccc1

GI50 (U-251): 4.5 µM | GI50 (SW-620): 25 µM | GI50 (NCI-H522): 48 µM | GI50 (SK-OV-3 [4]): 25 µM | GI50 (DU-145): 8 µM
Structure (SMILES): Nc1ccc2c(c1)C(=O)c1nc3ccccc3c(=O)n1-2
IC50 (Hep 3B2 [11]): 5.8 µM | GI50 (NCI/ADR-RES): 1 µM | GI50 (M14): 15 µM | GI50 (A498): 2 µM

IC50 (HL-60): 2 µM | IC50 (MOLT-4): 8 µM | IC50 (K562 [14]): 5 µM | GI50 (U-251): 0.7 µM | GI50 (SW-620): 4.8 µM | GI50 (NCI-H522): 5 µM | GI50 (DU-145): 2 µM | IC50 (Bel-7402): 27.2 µM | IC50 (MGC-803): 59.1 µM | IC50 (HepG2 [16]): 99.6 µM | IC50 (A549 [19]): 89.6 µM | IC50 (SK-OV-3 [20]): 89.6 µM | IC50 (HeLa [21]): > 150 µM | IC50 (HepG2 [22]): 89.6 µM
Structure (SMILES): O=C1c2cc(Br)ccc2-n2c1nc1ccccc1c2=O
IC50 (Hep 3B2 [11]): 2 µM | GI50 (NCI/ADR-RES): 5 µM | GI50 (M14): 5 µM | IC50 (T-24 [15]): 15.1 µM | IC50 at 48 h [17]: 50.1 µM | IC50 (T-24 [18]): 94.1 µM | IC50 [23]: 50.1 µM

IC50 (Hep 3B2 [24]): 9 µM
Structure (SMILES): O=C1c2ccccc2-n2c1nc1ccc(Br)cc1c2=O

IC50 (A549 [9]): 35.8 µM | IC50 (A549/CDDP): 67.2 µM
Structure (SMILES): COc1cc(/C=C/C(=O)CC(=O)/C=C/c2ccc(O)c(OC)c2)ccc1O [CURCUMIN]
IC50 [10]: > 100 µM
